Experimental findings from patent publication US20210317090A1, “AMINO ACID DEPLETION AGENTS AS ANTIPROLIFERATIVE AGENTS” (University of Central Florida Research Foundation, Inc., priority 2018, published 2021) are described below.

Assay [1] concerns L3.6pl cells. The experiment in a line: Intracellular polyamine and Ant-44 levels (N-dansylation, HPLC) in L3.6pl cells. Format: cell-based, human. The following applies: for Intracellular Putrescine / Intracellular Spermidine / Intracellular Spermine / Intracellular Total Polyamines: 72 hr. As for the experimental part:
One explanation for the enhanced potency was that compound 10 (1666.255) increased polyamine import and, as a result, may have increased intracellular Ant-44 levels. To test this hypothesis, L3.6pl cells were dosed with a fixed concentration of Ant-44 (2 μM) alone and in combination with increasing concentrations of compound 10 (1666.255) to explore how this combination therapy affected intracellular polyamine pools and Ant-44 import.
FIG. 7 is an example according to various embodiments, illustrating both single and combination therapies in L3.6pl cells with Ant-44 and compound 10 (1666.255) after 72 h incubation. Polyamine and Ant-44 levels (expressed as nmoles/mg protein) and relative % viability versus an untreated control were observed after 72 h incubation at 37° C. The untreated control was run in parallel and polyamine levels determined in duplicate and % cell viability in triplicate. Ant-44 was dosed at a fixed concentration of 2 μM and compound 10 (1666.255) at increasing concentrations. Cell viability tracked well with total intracellular polyamine levels (sum of putrescine, spermidine and spermine).
It was concluded that compound 10 was neither acting as a PTI nor as a polyamine import agonist. How then could it lead to intracellular polyamine depletion? […] To test this hypothesis, L3.6pl cells were dosed with increasing concentrations of compound 10 (1666.255) without Ant44. If compound 10 (1666.255) was acting on polyamine pools, one should see a reduction in total polyamine levels as well as decreased cell viability in a dose dependent manner upon increasing levels of 10. Therefore, the toxicity of compound 10 and intracellular polyamine levels after 72 h exposure to 10 were measured (FIG. 8).
FIG. 8 is an example according to various embodiments, illustrating intracellular polyamine levels (expressed as nmoles polyamine/mg protein) in L3.6pl cells dosed with increasing concentrations of compound 10 (1666.255) after cells were incubated for 72 h at 37° C. The untreated control was run in parallel and polyamine levels determined in duplicate via N-dansylation and HPLC. The data was averaged and reported as nmol polyamine (PA)/mg protein.
This example illustrates aspects according to various embodiments pertaining to a 72 h experiment with Compound 10 in L3.6pl cells. Ten milliliters of a cell suspension containing L3.6pl human pancreatic cancer cells (50,000 cells/mL) and aminoguanidine (1 mM) were placed in treated plastic Petri dishes (d=9 cm) and incubated overnight at 37° C. After 24 h, the cells were dosed with compound 10 at 2 μM, 5 μM, or 7 μM. (Note: Stock solutions of 10 at 2, 5, and 7 mM were dissolved in phosphate buffered saline (PBS) and were filtered through a 0.2 μm filter prior to use. The experiments were maintained with a total volume of 10.01 mL where 10 mL of the cell suspension was placed in a plastic dish and each compound or the equivalent PBS volume was added to make up the total volume 10.01 mL for each dish. For example, for the control experiment PBS (10 μL) was added to make up the total volume (10 mL+10 μL=10.01 mL). After 72 h incubation, the cells were collected first by pipetting off the supernatant containing floating dead cells from the culture dish as well as media and placing them into 15 mL tubes. The supernatant containing floating cells was centrifuged (4 min at 1,000 rpm). The cell-free supernatant (supernatant #1) was collected into a new 15 mL tube and quantified (˜8.6 mL) and was then stored frozen and was later quantified by LCMS to investigate the media composition of particular polyamine and amino acid analytes. The attached cells on the dish were washed with PBS (5 mL). The PBS wash was removed by suction and additional PBS (2 mL) was added and again suctioned off to provide twice-washed cells still adhered to the dish. Trypsin (2 mL) was then added to each dish and incubated (3-5 min) until all the cells were detached. Fresh media (8 mL) was added to quench the trypsin. […]

Assay [2] deals with T1, LAT-1 (Homo sapiens, UniProt Q01650).
T1 construct: endogenous in cells; host or cells: L3.6pl human pancreatic cancer cells
The experiment in a line: 3H-Leucine uptake assay. Conditions: L3.6pl cells, increasing concentration, 15 min uptake (FIG. 10D, 10E). The format is cell-based. As for the experimental part:
^3H-Leucine uptake experiments were performed according to the protocol developed by Hälfliger et al. (2018) (referenced below with the following changes. Briefly, cells were seeded at 60% confluency in a 24-well plate and incubated for 4 h at 37° C. After 4 hours, different concentrations of compound 10 were added and the cells were then incubated overnight. L-^3H-leucine uptake inhibition was measured for 15 minutes using a 12 μM stock of L-[^3H]leucine (79 Ci/mmol). The final concentration of ^3H-leucine in each well was 1.2 uM. This concentration produced a CPM reading of ˜4000 cpm for the control. Uptake was terminated by removing the buffer solution followed by washing the cells with cold Na^+-free Hank's Balanced Salt Solution. Cells were then lysed to give ˜500 μL of cell lysate. A portion of the cell lysate (200 μL) was mixed with Scintiverse™ BD Cocktail for determining radiocounts. The radioactivity was measured with a scintillation counter (Beckman Coulter LS 6500 Multi-Purpose Scintillation Counter). Another portion of the cell lysate (300 μL) was used for protein determination using the BCA method. The final data was expressed as cpm/microgram of protein to account for the different number of cells remaining after the experiment. This was necessary because compound 10 was toxic and less cells were present after the overnight incubation (24 h). […]

T1 sequence (Q01650 whole entry): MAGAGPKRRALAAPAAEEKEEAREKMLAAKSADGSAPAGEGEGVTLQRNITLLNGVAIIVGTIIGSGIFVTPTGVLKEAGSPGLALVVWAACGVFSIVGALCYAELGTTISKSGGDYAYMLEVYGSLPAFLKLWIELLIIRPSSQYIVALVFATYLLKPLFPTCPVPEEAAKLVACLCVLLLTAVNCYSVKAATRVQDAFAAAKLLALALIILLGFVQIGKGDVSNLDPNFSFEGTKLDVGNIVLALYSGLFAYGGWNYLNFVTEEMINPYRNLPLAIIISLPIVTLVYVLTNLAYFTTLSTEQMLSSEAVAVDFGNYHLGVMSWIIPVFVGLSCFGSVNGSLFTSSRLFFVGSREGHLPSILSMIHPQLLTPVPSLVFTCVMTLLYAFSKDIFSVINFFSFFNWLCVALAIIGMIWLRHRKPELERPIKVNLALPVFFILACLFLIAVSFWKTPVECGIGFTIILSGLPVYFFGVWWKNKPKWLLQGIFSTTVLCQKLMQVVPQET
T1 sequence (P08195 102-630 partner): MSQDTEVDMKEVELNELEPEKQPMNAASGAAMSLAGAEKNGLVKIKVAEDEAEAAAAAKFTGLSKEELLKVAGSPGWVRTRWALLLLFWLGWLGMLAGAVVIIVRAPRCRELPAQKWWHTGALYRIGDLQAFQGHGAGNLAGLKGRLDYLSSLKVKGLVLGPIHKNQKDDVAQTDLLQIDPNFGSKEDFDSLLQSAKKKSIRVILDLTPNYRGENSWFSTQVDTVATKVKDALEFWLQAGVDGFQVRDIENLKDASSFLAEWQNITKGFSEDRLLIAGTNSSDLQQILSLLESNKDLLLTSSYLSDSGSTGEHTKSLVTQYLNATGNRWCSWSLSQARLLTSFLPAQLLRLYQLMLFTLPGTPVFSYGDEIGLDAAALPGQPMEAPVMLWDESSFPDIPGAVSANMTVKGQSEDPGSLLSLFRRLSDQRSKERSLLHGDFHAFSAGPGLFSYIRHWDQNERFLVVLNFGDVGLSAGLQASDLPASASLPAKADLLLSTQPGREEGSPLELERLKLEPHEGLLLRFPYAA

As for `CC(C)CCN1CCN(C(CNCc2ccccc2)CC2CCCCC2)CC1CC(C)C.Cl.Cl.Cl` (centres unmarked) [Compound 10, Benzyl-{3-cyclohexyl-2-[3-isobutyl-4-(3-methyl-butyl)-piperazin-1-yl]-propyl}-amine trihydrochloride salt], in assay [1] (2 μM), the “Intracellular Putrescine” value was 6.2 ± 0.7 nmol polyamine/mg protein, the “Intracellular Spermidine” value was 27.1 ± 2.4 nmol polyamine/mg protein, the “Intracellular Spermine” value was found to be 16.1 ± 0.0 nmol polyamine/mg protein and the “Intracellular Total Polyamines” value worked out at 49.5 ± 3.1 nmol polyamine/mg protein. In assay [1] (5 μM), the “Intracellular Putrescine” value came out at 6.0 ± 0.9 nmol polyamine/mg protein, the “Intracellular Spermidine” value is 17.6 ± 1.8 nmol polyamine/mg protein, the “Intracellular Spermine” value is reported as 14.9 ± 1.1 nmol polyamine/mg protein and the “Intracellular Total Polyamines” value is recorded as 38.5 ± 3.4 nmol polyamine/mg protein. In assay [1] (7 μM), the “Intracellular Putrescine” value stood at 5.9 ± 0.3 nmol polyamine/mg protein, the “Intracellular Spermidine” value worked out at 15.6 ± 0.1 nmol polyamine/mg protein, the “Intracellular Spermine” value was found to be 12.7 ± 0.6 nmol polyamine/mg protein and the “Intracellular Total Polyamines” value came out at 34.2 ± 0.9 nmol polyamine/mg protein. For the same molecule, the “intracellular level of Ant-44” value in assay [1] (Ant-44 2 μM with compound 10 at 1 μM, 72 h) was determined as 2.08 nmol Ant44/mg protein. In addition, in assay [2], the 3H-Leucine uptake entry is “able to inhibit the uptake”.
